In patent US10143681B2, “Factor XIa inhibitors” (MERCK SHARP & DOHME CORP., priority 2016, dated 2018):
pIC50: −log10 of the molar value.

Legend:
human Factor XIa = human Factor XIa (Homo sapiens (Human), UniProt P03951); experiment: Factor XIa Assay; format: biochemical; conditions: for pIC50: human Factor XIa 0.04 nM, 30 min pre-incubation at 25° C., substrate GPR-AFC, read-out: FXIa IC50; for inhibition at 1 µM: read-out: FXIa % Inh. @ 1000 nM
Procedure: (§1) The effectiveness of a compound of the present invention as an inhibitor of Coagulation Factor XIa can be determined using a relevant purified serine protease, and an appropriate synthetic substrate. The rate of hydrolysis of the chromogenic or fluorogenic substrate by the relevant serine protease was measured both in the absence and presence of compounds of the present invention. Assays were conducted at room temperature or at 37° C. […] A decrease in the rate of fluorescence change in the presence of inhibitor is indicative of enzyme inhibition. Such methods are known to one skilled in the art. The results of this assay are expressed as the half-maximal inhibitory concentrations (IC50), or the inhibitory constant, Ki.
Compounds were pre-incubated for 30 minutes at 25° C. with human (0.04 nM) Factor XIa in 50 mM HEPES buffer with 150 mM sodium chloride, 5 mM calcium chloride, 0.1% PEG 8000, pH 7.4. Factor XIa enzymatic activity was determined by addition of the substrate glycine-proline-arginine-7-amido-4-trifluoromethylcoumarin (GPR-AFC) and measurement of the fluorescence at 400/505 nm after a 60 minute incubation at 25° C. The % inhibition for each data point was calculated from the data and analyzed using the log (inhibitor) vs. response four parameters equation to determine the half-maximal inhibitory concentrations (IC50). The IC50 were converted to equilibrium inhibitory constants (Ki) using the Cheng-Prusoff equation.

[1] = system: Human plasma (intrinsic coagulation cascade); experiment: Activated Partial Thromboplastin Time (aPTT) Assay; conditions: concentration that causes a 50% (1.5×) increase of clot time over vehicle
Procedure: Activated partial thromboplastin time (aPTT) is a clotting test that measures the intrinsic coagulation cascade. The test is performed in sodium citrated plasma. Human plasma is made by collecting blood from healthy donors of both genders into Na citrate tubes (Sarstedt coagulation 9NC/10 ml). Blood is centrifuged at 1500×g and the plasma is collected. aPTT is checked on each individual donor and those within the normal range (28-40 seconds) are pooled, aliquoted, and stored at −80 C. Test samples are prepared by spiking inhibitors or vehicle into plasma. These spiked samples are then run on a coagulation analyzer (STA-R Evolution, Stago Diagnostica). In general, the analyzer performs the following steps: Factor XII is activated by addition of ellagic acid (Pacific Hemostasis), and then time to clot is measured after re-calcification of the sample. Inhibition of FXI will cause aPTT clot time to be prolonged. The data is expressed as percent increase over vehicle control clot time and the concentration that causes a 50% (1.5×) percent increase of clot time are reported.

Human plasma kallikrein = Human plasma kallikrein (Homo sapiens (Human), UniProt P03952); experiment: Kallikrein Assay; format: biochemical; conditions: purified Human plasma kallikrein 0.5 nM, substrate Acetyl-K-P-R-AFC; read-out: P. KLK IC50
Procedure: as §1, with “Kallikrein” for “Coagulation Factor XIa”
Kallikrein determinations were made in 50 mM HEPES buffer at pH 7.4 containing 150 mM NaCl, 5 mM CaCl2, and 0.1% PEG 8000 (polyethylene glycol; Fisher Scientific). Determinations were made using purified Human plasma kallikrein at a final concentration of 0.5 nM (Enzyme Research Laboratories) and the synthetic substrate, Acetyl-K-P-R-AFC (Sigma # C6608) at a concentration of […].
Times required to achieve equilibration between enzyme and inhibitor were determined in control experiments. The reactions were performed under linear progress curve conditions and fluorescence increase measured at 405 Ex/510 Em nm. […] IC50 was determined by inflection point from a four parameter logistic curve fit. Ki was calculated using the Cheng Prusoff equation, Ki=IC50/(1+([S]/Km)).

Human plasma kallikrein, sequence (P03952 391-638): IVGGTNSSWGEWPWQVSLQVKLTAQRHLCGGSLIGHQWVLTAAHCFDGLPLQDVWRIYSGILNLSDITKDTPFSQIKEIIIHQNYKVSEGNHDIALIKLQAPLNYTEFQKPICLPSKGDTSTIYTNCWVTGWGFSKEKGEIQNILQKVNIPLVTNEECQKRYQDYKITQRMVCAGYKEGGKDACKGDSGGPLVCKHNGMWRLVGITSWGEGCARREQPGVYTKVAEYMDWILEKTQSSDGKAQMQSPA
Human plasma kallikrein, sequence (P03952 20-390 partner): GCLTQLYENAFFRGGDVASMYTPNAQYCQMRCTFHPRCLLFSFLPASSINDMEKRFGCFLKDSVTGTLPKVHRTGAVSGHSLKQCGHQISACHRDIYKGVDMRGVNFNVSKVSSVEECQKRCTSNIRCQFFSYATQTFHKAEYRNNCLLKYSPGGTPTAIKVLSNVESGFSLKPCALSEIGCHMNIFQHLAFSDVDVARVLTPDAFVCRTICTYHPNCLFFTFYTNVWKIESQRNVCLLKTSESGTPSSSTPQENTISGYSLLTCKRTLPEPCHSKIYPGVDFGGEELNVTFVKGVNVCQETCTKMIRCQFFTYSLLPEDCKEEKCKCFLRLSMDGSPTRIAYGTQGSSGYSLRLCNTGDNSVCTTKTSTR
human Factor XIa, sequence (P03951 388-625): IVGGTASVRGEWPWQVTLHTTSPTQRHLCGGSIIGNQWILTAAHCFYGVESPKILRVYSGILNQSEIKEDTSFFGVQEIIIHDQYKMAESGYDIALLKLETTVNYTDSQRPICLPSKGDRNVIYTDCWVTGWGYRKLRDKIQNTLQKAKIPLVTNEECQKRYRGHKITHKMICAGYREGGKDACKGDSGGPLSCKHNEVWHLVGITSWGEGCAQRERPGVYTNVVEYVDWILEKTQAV
human Factor XIa, sequence (P03951 19-387 partner): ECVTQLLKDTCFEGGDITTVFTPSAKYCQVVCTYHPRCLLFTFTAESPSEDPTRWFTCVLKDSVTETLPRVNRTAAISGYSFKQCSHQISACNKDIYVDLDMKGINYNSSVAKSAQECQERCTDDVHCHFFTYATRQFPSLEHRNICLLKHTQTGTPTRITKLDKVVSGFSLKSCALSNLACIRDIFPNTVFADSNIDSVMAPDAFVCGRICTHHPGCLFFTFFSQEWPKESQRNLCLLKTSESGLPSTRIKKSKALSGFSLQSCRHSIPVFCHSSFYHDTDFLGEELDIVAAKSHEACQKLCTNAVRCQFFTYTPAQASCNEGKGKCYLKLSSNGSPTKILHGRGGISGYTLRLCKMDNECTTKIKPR

pIC50 (human Factor XIa) | inhibition at 1 µM (human Factor XIa; @ 1000 nM compound) | pIC50 (Human plasma kallikrein) | FXIa % Inh. @ 1000 nM (human Factor XIa; @ 1000 nM compound) | SMILES | aPTT (1.5x) [1]
7.41 |  |  |  | O=C(O)c1ccc(NC(=O)[C@@H](CC2CCC2)c2ccc(-c3c(C(F)F)ccc(Cl)c3F)c[n+]2[O-])cc1 (mixture of isomers) [Example 3, (S)- and (R)-2-(1-((4-Carboxyphenyl)amino)-3-cyclobutyl-1-oxopropan-2-yl)-5-(3-chloro-6-(difluoromethyl)-2-fluorophenyl)pyridine 1-oxide] | >100 µM
< 6.00 | 30% |  |  | O=C(O)c1ccc(NC(=O)C(CC2CC2)c2ccc(-c3cc(Cl)ccc3OC(F)F)c[n+]2[O-])cc1 (single isomer, unassigned) [Example 6, (S)- or (R)-4-[(2-{5-[5-chloro-2-(difluoromethoxy)phenyl]-1-oxidopyridin-2-yl}-3-cyclopropylpropanoyl)amino] benzoic acid] | >100 µM
6.01 |  |  |  | CCOc1ccc(Cl)c(F)c1-c1ccc(C(CC2CC2)C(=O)Nc2ccc(C(=O)O)cc2)[n+]([O-])c1 (single isomer, unassigned) [Example 8, (S)- or (R)-4-({2-[5-(3-chloro-6-ethoxy-2-fluorophenyl)-1-oxidopyridin-2-yl]-3-cyclopropylpropanoyl}amino) benzoic acid] | >100 µM
< 6.00 | 33% |  |  | CC(C)Oc1ccc(Cl)c(F)c1-c1ccc(C(CC2CC2)C(=O)Nc2ccc(C(=O)O)cc2)[n+]([O-])c1 (single isomer, unassigned) [Example 16, (S)- or (R)-4-[(2-{5-[3-chloro-2-fluoro-6-(1-methylethoxy)phenyl]-1-oxidopyridin-2-yl}-3-cyclopropylpropanoyl)amino] benzoic acid] | >100 µM
7.62 |  |  |  | CC(C)Oc1ccc(Cl)c(F)c1-c1ccc(C(CC2CC2)C(=O)Nc2ccc(C(=O)O)cc2)[n+]([O-])c1 (single isomer, unassigned) [Example 17, (R)- or (S)-4-[(2-{5-[3-chloro-2-fluoro-6-(1-methylethoxy)phenyl]-1-oxidopyridin-2-yl}-3-cyclopropylpropanoyl)amino] benzoic acid] | >100 µM
7.00 |  |  |  | O=C(O)c1ccc(NC(=O)C(CC2CCCC2)c2ccc(-c3c(OC(F)F)ccc(Cl)c3F)c[n+]2[O-])cc1 (single isomer, unassigned) [Example 18, (S)- or (R)-4-[(2-{5-[3-chloro-6-(difluoromethoxy)-2-fluorophenyl]-1-oxidopyridin-2-yl}-3-cyclopentylpropanoyl)amino] benzoic acid] | >100 µM
6.53 |  |  |  | O=C(O)c1ccc(NC(=O)C(CC2CC2)c2ccc(-c3cc(Cl)ccc3C(F)F)c[n+]2[O-])cc1 (single isomer, unassigned) [Example 28, (S)- or (R)-2-(1-((4-carboxyphenyl)amino)-3-cyclopropyl-1-oxopropan-2-yl)-5-(5-chloro-2-(difluoromethyl)phenyl)pyridine 1-oxide] | >100 µM
 |  | 7.09 |  | O=C1CCC(CC(C(=O)Nc2ccc(C(=O)O)cc2)c2ccc(-c3c(OC(F)F)ccc(Cl)c3F)c[n+]2[O-])CC1 (single isomer, unassigned) [Example 33] | 
8.49 |  | 7.46 |  | C[C@]1(O)CC[C@@H](CC(C(=O)Nc2ccc(C(=O)O)cc2)c2ccc(-c3c(OC(F)F)ccc(Cl)c3F)c[n+]2[O-])CC1 (single isomer, unassigned) [Example 40, 2-(1-((4-carboxyphenyl)amino)-3-((1s,4s)-4-hydroxy-4-methylcyclohexyl)-1-oxopropan-2-yl)-5-(3-chloro-6-(difluoromethoxy)-2-fluorophenyl)pyridine 1-oxide] | 
9.42 |  |  |  | C[C@@H]1C[C@H]1C[C@@H](C(=O)Nc1ccc(C(=O)O)cc1)c1ccc(-c2c(OC(F)F)ccc(Cl)c2F)c[n+]1[O-] (single isomer, unassigned) [Example 56] | 1.34 µM
8.48 |  | 7.11 |  | CC1CC(CC(C(=O)Nc2ccc(C(=O)O)cc2)c2ccc(-c3c(C(F)(F)F)ccc(Cl)c3F)c[n+]2[O-])C1 (single isomer, unassigned) [Example 75, 2-(1-((4-carboxyphenyl)amino)-3-(3-methylcyclobutyl)-1-oxopropan-2-yl)-5-(3-chloro-2-fluoro-6-(trifluoromethyl)phenyl) pyridine 1-oxide] | 
 |  | 7.42 |  | O=C(O)c1ccc(NC(=O)C(CC2CC2(F)F)c2ccc(-c3c(C(F)F)ccc(Cl)c3F)c[n+]2[O-])cc1 (single isomer, unassigned) [Example 77, 2-(1-((4-carboxyphenyl)amino)-3-(2,2-difluorocyclopropyl)-1-oxopropan-2-yl)-5-(3-chloro-6-(difluoromethyl)-2-fluorophenyl)pyridine 1-oxide] | 
9.22 |  | 8.15 |  | O=C(O)c1ccc(NC(=O)C(CC2CC2C(F)F)c2ccc(-c3c(C(F)F)ccc(Cl)c3F)c[n+]2[O-])cc1 (single isomer, unassigned) [Example 89, 2-(1-((4-carboxyphenyl)amino)-3-(2-(difluoromethyl)cyclopropyl)-1-oxopropan-2-yl)-5-(3-chloro-6-(difluoromethyl)-2-fluorophenyl)pyridine-1-oxide] | 
8.96 |  | 8.28 |  | O=C(O)c1ccc(NC(=O)C(CC2CC2C(F)F)c2ccc(-c3c(C(F)F)ccc(Cl)c3F)c[n+]2[O-])cc1 (single isomer, unassigned) [Example 90, 2-(1-((4-carboxyphenyl)amino)-3-(2-(difluoromethyl)cyclopropyl)-1-oxopropan-2-yl)-5-(3-chloro-6-(difluoromethyl)-2-fluorophenyl)pyridine 1-oxide] | 
7.55 |  |  |  | O=C(O)c1ccc(NC(=O)C(CC2CC2F)c2ccc(-c3c(C(F)F)ccc(Cl)c3F)c[n+]2[O-])cc1 (single isomer, unassigned) [Example 91, 2-(1-((4-carboxyphenyl)amino)-3-(2-fluorocyclopropyl)-1-oxopropan-2-yl)-5-(3-chloro-6-(difluoromethyl)-2-fluorophenyl)pyridine 1-oxide] | 5.93 µM
9.21 |  |  |  | CC1CCC1CC(C(=O)Nc1ccc(C(=O)O)cc1)c1ccc(-c2c(OC(F)F)ccc(Cl)c2F)c[n+]1[O-] (single isomer, unassigned) [Example 105, 2-(1-((4-carboxyphenyl)amino)-3-(2-methylcyclobutyl)-1-oxopropan-2-yl)-5-(3-chloro-6-(difluoromethoxy)-2-fluorophenyl)pyridine 1-oxide] | 1.13 µM
6.00 |  | 6.70 | 45% | COC(=O)c1ccc(NC(=O)C(CC2CC2)c2ccc(-c3c(C(F)F)ccc(Cl)c3F)c[n+]2[O-])cc1 (single isomer, unassigned) [Example 114, 5-(3-chloro-6-(difluoromethyl)-2-fluorophenyl)-2-(3-cyclopropyl-1-((4-(methoxycarbonyl)phenyl)amino)-1-oxopropan-2-yl)pyridine 1-oxide] | 
 |  |  |  | COc1cc(C(CC2CC2)C(=O)Nc2ccc(C(=O)O)cc2)[n+]([O-])cc1-c1c(C(F)F)ccc(Cl)c1F [Example 69, (S)- and (R)-2-(1-((4-carboxyphenyl)amino)-3-cyclopropyl-1-oxopropan-2-yl)-5-(3-chloro-6-(difluoromethyl)-2-fluorophenyl)-4-methoxypyridine 1-oxide] | 1.92 µM
